Data on 29 compounds can be found in US8466186B2, “Compounds” (Boehringer Ingelheim International GmbH, priority 2010, dated 2013).

The target of the experiment is T1, recombinant human mPGES-1 (Homo sapiens, UniProt O14684).
T1 construct: made in house; host or cells: Rosetta E. coli (membrane/microsome fraction)
T1 sequence (O14684 1-152): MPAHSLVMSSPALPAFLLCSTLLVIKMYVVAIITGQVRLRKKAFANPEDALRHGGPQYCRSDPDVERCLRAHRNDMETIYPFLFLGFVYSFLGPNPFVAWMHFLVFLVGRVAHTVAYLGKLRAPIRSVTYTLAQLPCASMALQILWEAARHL
Put plainly: Assay A: mPGES-1 enzyme assay (HTRF detection of PGE2). The note with it: biological assay A; microsomes from E. coli expressing recombinant human mPGES-1; read-out: mPGES-1 inhibitory effect IC50. Type of experiment: biochemical. An excerpt:
The aim of this assay is to determine the affinity of a test compound for the mPGES-1 enzyme.
• 1. Riendeau, D., R. Aspiotis, D. Ethier, Y. Gareau, E. Grimm, J. Guay, S. Guiral, H. Juteau, J. Mancini, N. Methot, J. Rubin, and R. Friesen, Inhibitors of the inducible microsomal prostaglandin E2 synthase (mPGES-1) derived from MK-886. Bioorg Med Chem Lett, 2005. 15(14): p. 3352-3355. • 2. Cote, B., L. Boulet, C. Brideau, D. Claveau, D. Ethier, R. Frenette, M. Gagnon, A. Giroux, J. Guay, S. Guiral, J. Mancini, E. Martins, F. Masse, N. Methot, D. Riendeau, J. Rubin, D. Xu, H. Yu, Y. Ducharme, and R. Friesen, Substituted phenanthrene imidazoles as potent, selective, and orally active mPGES-1 inhibitors. Bioorg Med Chem Lett, 2007. 17(24): p. 6816-6820. Assay A: mPGES-1 Enzyme Assay List of Reagents Used: • Glutathione (Sigma, G-4251) • Freeze culture in Rosetta E coli expression strain. • LB growth media with Ampillicillin (Amp) final concentration in culture 50 μg/mL • Chloroamphenicol stock 34 mg/mL (chloro) final concentration in culture 34 μg/mL • Sterile growth flasks for 500 mL-1 liter cultures • 0.1 M KP, buffer pH 7.4 • 9.25% HCl • PGH2 (0.25 mM) • Fe (II) Cl2 tetrahydrate, 99% (Sigma, 220229) • 384-well plate with compounds • 96-well plate, polypropylene (Thermo fast 96 skirted VWR) • 384-well plate polypropylene PCR plate (Greiner 785201) • Greiner 384-well plate pp (In vitro cat. no. 781280) • Adhesive sealing film for 96-well plates (Sigma-Aldrich) • Aluminium foil (PCR foil, 310-0030-127-471 from Labora) • PBS (GIBCO 14040) • Prostaglandin E2 Assay (Cisbio, cat. no. 62P2APEC) • Biomek FX robot (Beckman Coulter) • Biomek NX robot (Beckman Coulter) • Multidrop; micro or combi (ThermoLabsystems) • Plate reader: Safire2 (Tecan)
Microsomes from Rosetta E. coli bacteria expressing recombinant human mPGES-1 can be derived as described below:
Inoculate 5 mL LB with Amp and Chloro with bacteria from freeze culture. Incubate overnight at 37° C. with 200 rpm. Thereafter, inoculate 500-800 mL LB containing Amp and Chloro with the 5 mL on culture and grow to OD640 of 0.6-0.8. Chill the culture to +4° C. before induction. Induce the culture with IPTG at a final concentration of 400 μM. Express the protein at room temp 18-23° C. with 200 rpm shaking overnight.
The following steps can be performed on the following day: • 1. Spin down the cells in 250 mL centrifuge flasks for 15 min at 7000 rpm • 2. Dissolve the pellet from 250 mL culture in 12.5 mL homogenization buffer • 3. Disintegrate the cells by sonication, 4×10 seconds at 35% amplitude • 4. Add 2.5 mL MgCl2 (100 mM) and DNase 12.5 μL (0.8 mg/mL) and incubate on ice for 30 min • 5. Spin down the bacteria debris and save the supernatant, 7000 rpm for 15 min • 6. Isolate the protein containing membranes in the supernatant by ultracentrifugation 45000×g for 1 hour. • 7. Discard the supernatant and dissolve the pellet in 20 mM KPi buffer and aliquot the enzyme and store aliquots at −80° C.
Before each experiment is performed an aliquot of the enzyme is thawed and it can then be dissolved in 0.1 M KP, pH 7.4 buffer containing 2.5 mM GSH. 50 μL of this enzyme solution is subsequently dispensed in a 384-well plate at room temperature. 0.5 μL of the inhibitor dissolved in DMSO is thereafter added to each well and incubated for 25 minutes at room temperature. Subsequently, 2 μL of PGH2 dissolved in an appropriate solvent is added to each well and after one minute at room temperature, the acidified stop solution containing FeCl2 is added. 4 μL of the total volume is transferred to a separate plate and diluted 750-fold in two separate steps before quantification of PGE2.
In order to quantitate the amount of PGE2 that has been formed, a homogenous time resolved fluorescent (HTRF) detection of PGE2 can be performed by the use of a commercially available kit from CisBio essentially according to the manufacturer's protocol. […]
A general note: In TR-FRET formats the signal depends on donor and acceptor labels being close together.
As a reminder, the IC50 is the concentration that gives 50% inhibition. Take `Cn1c(Nc2cc(CNC(=O)C(C)(N)C(F)(F)F)ccc2Cl)nc2cc(Cl)c(N3CCCC(C(F)(F)F)C3)cc21` (centres unmarked) [Example 1, 2-Amino-N-{4-chloro-3-[5-chloro-1-methyl-6-(3-(trifluoromethyl)piperidin-1-yl)-1H-benzo[d]imidazol-2-ylamino]benzyl}-3,3,3-trifluoro-2-methylpropanamide]: the 50% inhibitory concentration (IC50) was determined as 2.5 nM.
The same measure for `CC(C)(C)C(=O)NCc1ccc(Cl)c(Nc2nc3cc(N4CCC(F)(F)C4)c(Cl)cc3[nH]2)c1` [Example 2, N-{4-Chloro-3-[6-chloro-5-(3,3-difluoropyrrolidin-1-yl)-1H-benzo[d]imidazol-2-ylamino]benzyl}-2,2-dimethyl-propionamide]: 19 nM.
As for `CN(C)CC1CCN(c2cc3[nH]c(Nc4cc(CNC(=O)C(C)(C)C)ccc4Cl)nc3cc2Cl)C1` (centres unmarked) [Example 3, N-{4-Chloro-3-[5-chloro-6-(3-dimethylaminomethyl-pyrrolidin-1-yl)-1H-benzimidazol-2-ylamino]-benzyl}-2,2-dimethyl-propionamide], the IC50 was 715 nM.
The same measure for `CC(C)(C)C(=O)NCc1ccc(Cl)c(Nc2nc3cc(Cl)c(N4CCC5(CC5)C4)cc3[nH]2)c1` [Example 4, N-{3-[6-(5-Aza-spiro[2.4]hept-5-yl)-5-chloro-1H-benzimidazol-2-ylamino]-4-chloro-benzyl}-2,2-dimethyl-propionamide]: 24 nM.
Turning to `Cn1c(Nc2c(Cl)ccc(CNC(=O)C(C)(C)C)c2Cl)nc2cc(Cl)c(N3CCC(C(F)(F)F)CC3)cc21` [Example 5, N-{2,4-Dichloro-3-[5-chloro-1-methyl-6-(4-trifluoromethyl-piperidin-1-yl)-1H-benzimidazol-2-ylamino]-benzyl}-2,2-dimethyl-propionamide], the concentration for half-maximal inhibition (IC50) amounted to 3.8 nM.
The figure for `CN(C)C(=O)C1CCCN1c1cc2[nH]c(Nc3cc(CNC(=O)C(C)(C)C)ccc3Cl)nc2cc1Cl` (centres unmarked) [Example 6, N-{4-Chloro-3-[5-chloro-6-(2-dimethylcarbamoyl-pyrrolidin-1-yl)-1H-benzimidazol-2-ylamino]-benzyl}-2,2-dimethyl-propionamide] is 215 nM; for `CN(C)CC1CCCN1c1cc2[nH]c(Nc3cc(CNC(=O)C(C)(C)C)ccc3Cl)nc2cc1Cl` (centres unmarked) [Example 7, N-{4-Chloro-3-[5-chloro-6-(2-dimethylaminomethyl-pyrrolidin-1-yl)-1H-benzimidazol-2-ylamino]-benzyl}-2,2-dimethyl-propionamide] it is 74 nM.
The same measure for `CC(C)(C)C(=O)NCc1ccc(Cl)c(Nc2nc3cc(Cl)c(N4CCC(C#N)C4)cc3[nH]2)c1` (centres unmarked) [Example 8, N-{4-Chloro-3-[5-chloro-6-(3-cyano-pyrrolidin-1-yl)-1H-benzimidazol-2-ylamino]-benzyl}-2,2-dimethyl-propionamide]: 106 nM; for `O=C(NCc1ccc(Cl)c(Nc2nc3cc(Cl)c(N4CCC[C@@H]4CO)cc3[nH]2)c1)C1(C(F)(F)F)CC1` [Example 9, (R)—N-{4-Chloro-3-[5-chloro-6-(2-hydroxymethyl-pyrrolidin-1-yl)-1H-benzimidazol-2-ylamino]-benzyl}-1-trifluoromethyl-cyclopropanecarboxamide]: 143 nM.
Regarding `Cn1c(Nc2cc(CNC(=O)C3(C(F)(F)F)CC3)ccc2Cl)nc2cc(Cl)c(N3CCOCC3)cc21` [Example 10], the IC50 was 31 nM.
For `CN1CCN(c2cc3c(cc2Cl)nc(Nc2cc(CNC(=O)C4(C(F)(F)F)CC4)ccc2Cl)n3C)CC1` [Example 11, N-{4-Chloro-3-[5-chloro-1-methyl-6-(4-methyl-piperazin-1-yl)-1H-benzimidazol-2-ylamino]-benzyl}-1-trifluoromethyl-cyclopropanecarboxamide], the IC50 turned out to be 140 nM.
The same measure for `CC(C(=O)NCc1ccc(Cl)c(Nc2nc3cc(Cl)c(N4CCCC(C(F)(F)F)C4)cc3n2C)c1)C(F)(F)F` (centres unmarked) [Example 13]: 2.6 nM; for `Cn1c(Nc2cc(CNC(=O)C(C)(O)C(F)(F)F)ccc2Cl)nc2cc(Cl)c(N3CCCC(C(F)(F)F)C3)cc21` (centres unmarked) [Example 14]: 4.8 nM.
The figure for `Cn1c(Nc2cc(CNC(=O)C(C)(F)F)ccc2Cl)nc2cc(Cl)c(N3CCCC(C(F)(F)F)C3)cc21` (centres unmarked) [Example 15] is 3 nM; for `CCC(C)(CC)C(=O)NCc1ccc(Cl)c(Nc2nc3cc(N4CCCC4)ccc3[nH]2)c1` [Example 16] it is 15 nM.
Consider `CC(C)(C(=O)NCc1ccc(Cl)c(Nc2nc3cc(N4CCCC4)ccc3[nH]2)c1)C(F)(F)F` [Example 17], for which the 50% inhibitory concentration (IC50) came to 24 nM.
With `CCCC(C)(C)C(=O)NCc1ccc(Cl)c(Nc2nc3cc(N4CCCC4)ccc3[nH]2)c1` [Example 18], the half-inhibitory concentration (IC50) is 79 nM.
The same measure for `CC1CCCCC1C(=O)NCc1ccc(Cl)c(Nc2nc3cc(N4CCCC4)ccc3[nH]2)c1` (centres unmarked) [Example 19]: 52 nM; for `CC(C)(C)C(=O)NCc1ccc(Cl)c(Nc2nc3cc(N4CCCC4)ccc3[nH]2)c1` [Example 20]: more than 100 nM; for `O=C(NCc1ccc(Cl)c(Nc2nc3cc(N4CCCC4)ccc3[nH]2)c1)c1ccc(OCc2ccccc2)cc1` [Example 21]: 30 nM.
The same measure for `CC1(C(=O)NCc2ccc(Cl)c(Nc3nc4cc(N5CCCC5)ccc4[nH]3)c2)CCCC1` [Example 28]: 24 nM; for `O=S(=O)(NCc1ccc(Cl)c(Nc2nc3cc(N4CCCC4)ccc3[nH]2)c1)c1ccco1` [Example 29]: 105 nM.
The figure for `O=S(=O)(NCc1ccc(Cl)c(Nc2nc3ccc(N4CCCC4)cc3[nH]2)c1)C1CC1` [Example 30, N-{4-Chloro-3-[5-(pyrrolidin-1-yl)-1H-benzimidazol-2-ylamino]-benzyl}cyclopropylsulfonamide] is 300 nM; for `Cn1c(Nc2cc(CNC(=O)c3c(Cl)cncc3Cl)ccc2Cl)nc2cc(Cl)c(N3CCCC(C(F)(F)F)C3)cc21` (centres unmarked) [Example 54] it is 6.6 nM.
As for `Cn1c(Nc2cc(CNC(=O)C(N)C(F)(F)F)ccc2Cl)nc2cc(Cl)c(N3CCCC(C(F)(F)F)C3)cc21` (centres unmarked) [Example 65], the IC50 came out at 15 nM.
With `Cn1c(Nc2cc(CNC(=O)C3(C)COC3)ccc2Cl)nc2cc(Cl)c(N3CCCC(C(F)(F)F)C3)cc21` (centres unmarked) [Example 66], the IC50 was determined as 10 nM.
The same measure for `Cn1c(Nc2cc(CNC(=O)c3c(Cl)cccc3Cl)ccc2Cl)nc2cc(Cl)c(N3CCCC(C(F)(F)F)C3)cc21` (centres unmarked) [Example 68]: 4 nM; for `Cn1c(Nc2cc(CNC(=O)c3c(F)cccc3C(F)(F)F)ccc2Cl)nc2cc(Cl)c(N3CCCC(C(F)(F)F)C3)cc21` (centres unmarked) [Example 69]: 9 nM; for `Cn1c(Nc2cc(CNC(=O)C3(C(F)(F)F)CC3)ccc2Cl)nc2cc(Cl)c(N3CCC(C(F)(F)F)CC3)cc21` [Example 71, N-{4-Chloro-3-[5-chloro-1-methyl-6-(4-trifluoromethyl-piperidin-1-yl)-1H-benzimidazol-2-ylamino]benzyl}-1-trifluoromethyl-cyclopropaneamide]: 2.5 nM.
